Data taken from patent publication US20080200538A1, “Inhibition of Monocyte Survival, Differentiation, or Proliferation” (The Ohio State University Research Foundation, priority 2005, published 2008).

Legend:
A549 cells = experiment: Cell viability assay (CellTiter 96 / MTT, A490); assay type: cell-based; conditions: A549, apigenin, 24 h; reduced to
Procedure: (§1) FIG. 1. Effect of apigenin and naringenin in cell survival of cancer cells. (A) Structure of the flavonoids apigenin and naringenin. (B) THP-1, U937, A549, and MCF-7 cells were treated with various doses of apigenin or naringenin for 24 h. After the treatment, the percentage of cell proliferation was calculated as the ratio of treated cells to control cells as determined by the MTT method (A490). Data represents means ±SEM (N=9). […] Cells were plated at a density of 2×10^4 cells/well into 96-well plates and treated with flavonoids at indicated concentrations for 24 h. Absorbance at 490 nm (A490) was recorded using an ELISA plate reader (Bio-Tek ELx800, KC Junior, Winooski, Vt.).

MCF-7 cells = experiment: Cell viability assay (CellTiter 96 / MTT, A490); assay type: cell-based; conditions: MCF-7, apigenin, 24 h; reduced to
Procedure: as §1

caspase-3 [1] = experiment: Caspase-3 activity, DEVD-AFC assay, THP-1 lysates; assay type: cell-based, human; conditions: THP-1, 50 μM apigenin
Procedure: (§2) FIG. 3. Apigenin induces caspase activation in monocytic leukemia. THP-1 (top) and U937 (bottom) leukemia cells were treated for various lengths of time with 50 μM apigenin or DMSO (NT). (A and C) Caspase-9 activity was determined by the LEHDAFC assay. (B and D) Caspase-3 activity was determined by the DEVD-AFC assay. Data represents means ±SEM (N=3).
FIG. 4. Caspase-3 activation is required for apigenin-induced apoptosis. THP-1 cells were treated for 12 h with 50 μM apigenin alone or pretreated with 20 μM DEVD-FMK for 1 h prior to the addition of apigenin. (A) Cells were then stained with calcein AM and 24 PI and the percentage of apoptotic cells was determined. (B) Lysates from cells treated as described above were used to determined caspase-3 activity by the DEVD-AFC assay. All data represents means ±SEM (N=5).
FIG. 7. Apigenin induced p38 activation is not required for apoptosis. A. Cells were pretreated for 1 h prior to addition of 50 μM apigenin or DMSO (−) with 10 or 25 μM concentrations of SB203580 or DMSO (−) for 12 h. The percentage of apoptotic cells was determined by calcein AM with PI stained cells. Data represents means ±SEM (N=5 p>0.05). B. Lysates from the same treatments were used to determined caspase-3 activity by the DEVD-AFC assay. Data represents means ±SEM (N=5 p>0.05).
For measurements of caspase activity, cells were plated at a density of 1.5×10^6 cells/well. After treatment, cells extracts were prepared as previously described (Doseff, A. I., Baker J. H., Bourgeois T. A. and Wewers M. D. (2003) Interleukin-4-induced zpoptosis entails caspase activation and suppression of extracellular signal-regulated kinase phosphorylation. Am. J. Resp. Cell Mol. Biol., 29, 367-374). […] Levels of released AFC were measured using Cytofluor 400 fluorimeter (Filters: excitation 400 nm, emission 508 nm; Perspective Co., Framingham, Mass.).

caspase-3 [2] = experiment: Caspase-3 activity, DEVD-AFC assay, U937 lysates; assay type: cell-based, human; conditions: U937, 50 μM apigenin; remained high even after 24 h
Procedure: as §2
For measurements of caspase activity, cells were plated at a density of 1.5×10^6 cells/well. After treatment, cells extracts were prepared as previously described (Doseff, A. I., Baker J. H., Bourgeois T. A. and Wewers M. D. (2003) Interleukin-4-induced zpoptosis entails caspase activation and suppression of extracellular signal-regulated kinase phosphorylation. Am. J. Resp. Cell Mol. Biol., 29, 367-374). Protein extracts were incubated with 20 μM DEVD-AFC to determine caspase-3 activity or LEHD-AFC to determine caspase-9 activity (Enzyme Systems Products, Livermore, Calif.) in a cytobuffer as previously described (Doseff, A. I., Baker J. H., Bourgeois T. A. and Wewers M. D. (2003) Interleukin-4-induced zpoptosis entails caspase activation and suppression of extracellular signal-regulated kinase phosphorylation. Am. J. Resp. Cell Mol. Biol., 29, 367-374). Levels of released AFC were measured using Cytofluor 400 fluorimeter (Filters: excitation 400 nm, emission 508 nm; Perspective Co., Framingham, Mass.).

Akt = experiment: Western blot of Akt phosphorylation and total Akt in THP-1 cells; assay type: cell-based, human; conditions: THP-1, 50 μM apigenin
Procedure: FIG. 5. Apigenin affects Akt phosphorylation. THP-1 cells were treated with 50 μM apigenin for different lengths of time. Lysates were separated by SDS-PAGE, transferred and immunoblotted with anti-phospho-Akt (pSer 473), anti-phospho-Akt (pThr 308), total Akt, and â-tubulin antibodies.
FIG. 6. Apigenin induces the activation of p38 and inactivation of Akt. A. THP-1 cells were treated with 50 μM apigenin for various lengths of time. Lysates were separated by SDS-PAGE, transferred and analyzed by immunoblots with anti-phospho-p38 (pp 38) and anti-total-p38 antibodies. B. […] Lysates were analyzed by immunoblotting with anti-phospho-Akt (pSer 473), anti-phospho-p38 (p-p38), and anti-total-p38 antibodies.
Extracts from 3×10^6 cells were prepared by incubating cells for 30 min on ice in lysis buffer (50 mM Tris, 10 mM EDTA 0.5% NP-40, 10 mM Na-glycerophosphate, 5 mM Na-pyrophosphate, 50 mM NaF, 1 mM orthovanadate, 1 mM DTT, 0.1 mM PMSF, 2 μg/ml of protease inhibitors: chymostatin, pepstatin, antipain, and leupeptin). Cell lysates were centrifuged (14,000×g for 10 min at 4° C.) and the supernatants were stored for at −70° C. for future analysis. Equal amounts of protein were loaded and separated by SDS-PAGE, transferred onto nitrocellulose membranes and probed with antibodies of interest followed by horseradish peroxidase conjugated secondary antibody and visualized by enhanced chemiluminescence (Amersham, Arlington Heights, Ill.). Phospho-Ser473-Akt, phospho-Thr308-Alt, total AKT, phospho-p38 and total p38 antibodies were obtained from Cell Signaling (Boston, Mass.). â-tubulin antibody was obtained from Upstate (Charlottesville, Va.).

IL-1β [3] = experiment: IL-1β release from LPS-treated monocytes (sandwich ELISA); assay type: cell-based; conditions: LPS stimulated monocytes
Procedure: Effect of apigenin on IL-1β release. IL-1β released was determined by sandwich ELISA in supernatants of freshly isolated monocytes, or monocytes cultured for 18 h left untreated, treated with 10 ng/ml of LPS or A with different doses of apigenin. B. LPS and different doses of apigenin added at the same time. C. LPS added 1 h prior to the addition of different doses of apigenin. Values represent means ±SEM (N=5, * P<0.05, compared to LPS alone)

IL-8 [4] = experiment: IL-8 release by LPS stimulated monocytes; assay type: cell-based
IL-1β [5] = experiment: Cytokine expression in LPS-treated monocytes by quantitative PCR; assay type: cell-based; conditions: 10 ng/ml LPS and 10 μM apigenin
Procedure: (§3) Expression of IL-1β, IL-8 and TNFα was analyzed by quantitative PCR using lysates from monocytes left untreated, treated with 10 ng/ml of LPS or with LPS and 10 μM of apigenin. Values represent means ±SEM (N=4).

IL-8 [6] = experiment: as above; assay type: cell-based; conditions: 10 ng/ml LPS and 10 μM apigenin
Procedure: as §3

TNFα = experiment: as above; assay type: cell-based; conditions: 10 ng/ml LPS and 10 μM apigenin
Procedure: as §3

`O=c1cc(-c2ccc(O)cc2)oc2cc(O)cc(O)c12` [apigenin] was tested, and the “cell proliferation (ratio of treated to control cells)” value (A549 cells) was 80%, the “cell proliferation (ratio of treated to control cells)” value (MCF-7 cells) was 80% and the “caspase-3 activity, time course” value (caspase-3 [1]) was “detected after 6 h and similarly to caspase-9, the activity was sustained at 9 h, but decreased after 12 h”. For the same compound, the “caspase-3 activity, time course” value (caspase-3 [2]) was “detected at 9 h”, the “total Akt protein levels” value (Akt; after six hours) was “dramatically decreased” and the “Akt pSer473 phosphorylation” value (Akt; during the first hour) was “rapid decrease”. For the same compound, the “Akt pThr308 phosphorylation” value (Akt; first six hours) was “not significantly affected”, the “release of IL-1β” value (IL-1β [3]) was “inhibits” and the “release of IL-8” value (IL-8 [4]) was “inhibits”. The “expression of IL-1β” value (IL-1β [5]) was “inhibits the expression”, the “expression of IL-8” value (IL-8 [6]) was “inhibits the expression” and the “expression of TNFα” value (TNFα) was “inhibits the expression”.
